Reference: patent US11213499B1, “Use of 3,3′-diselenodipropionic acid (DSePA) as an anticancer agent” (Secretary, Department of Atomic Energy, priority 2020, dated 2022)

Test system: WI-38 (Human normal lung fibroblast)
Experiment: SRB/MTT assay, normal WI-38 cells
Format: cell-based
Method: The anticancer effect of DSePA was evaluated using a panel of twenty-five human cancer cell lines of different tissue origins. Cells were treated with the increasing concentrations (0.1-100 μM) of DSePA for 48 h and viability was monitored by (Sulforhodamine B) SRB assay or MTT assay.
Cell culture and DSePA synthesis—DSePA was synthesized and characterized as described in our previous reports. Cell lines were cultured in growth medium (DMEM/RPMI) supplemented with 10% FBS, 100 U/ml penicillin and 100 μg/ml streptomycin at 37° C. in a humidified 5% CO2 environment. The stock solution of DSePA was prepared fresh in cell culture medium and diluted with the same to achieve the desired concentrations.
SRB/MTT Assay—To evaluate the anti-proliferative effect of DSePA, Cells (˜5×10^3) suspended in 100 μl of complete culture medium were seeded in each well of 96 well plates. The cells were allowed to attach and grow for 24 h, treated with desired concentrations of DSePA dissolved in culture medium for 48 h and then processed for SRB/MTT assay as described in literature. The percentage (%) cytotoxicity was calculated from the decrease in absorbance as compared to that of control group.

## O=C(O)CC[Se][Se]CCC(=O)O [DSePA, 3,3′-diselenodipropionic acid]
Homo sapiens, WI-38 normal cells, 48 hours treatment, SRB/MTT assay, read-out: GI50 (Concentration of drug causing 50% inhibition of cell growth)
  GI50: > 100 µM
WI-38, 0.1-100 μM, 48 h
  toxicity in normal cell types: did not show toxicity
